# Assay results as given in US12559499B2, “Uses of compounds having anti-HSV-1 activity” (Arizona Board of Regents on Behalf of the University of …, priority 2019, dated 2026).
# Read-outs that look alike come from different tables or passages of the source.
# Key:
# wild-type HSV-1 strain F = assay: Anti-HSV-1 plaque reduction assay (PRA) on supernatants of infected U2OS cells; type: cell-based; conditions: for IC50: MOI 1, supernatants at 24 h.p.i., plaque reduction assay, read-out: IC50 (concentration able to perform 50% inhibition of HSV-1 production)
# Protocol: (§1) Quindoline-derived compounds were first screened for their anti-herpetic activity. Increasing concentrations of compounds (from 25 to 400 nM) were added to U2OS cells infected with wild-type HSV-1 strain F at a MOI of 1. Supernatants were collected at 24 hours post infection (h.p.i.) and the reduction of viral particles production was determined by plaque reduction assay (PRA) (see, Artusi S., et al., Antiviral Res. 2015; 118:123-31; Callegaro S., et al., Sci. Rep. 2017; 7: 2341). Antiviral activities were determined as the concentration of compounds able to perform 50% inhibition of HSV-1 production (IC50). Cytotoxicity effects were evaluated in parallel by MTT assay and reported as the concentration of compounds able to kill 50% of the cells (CC50). The selectivity index (SI) was calculated as the ratio of CC50 to IC50.
# [1] = test system: U2OS (Human osteosarcoma cell line); assay: Cytotoxicity by MTT assay; type: cell-based; conditions: U2OS cells, read-out: CC50 (concentration able to kill 50% of the cells)
# Protocol: as §1, with “Increasing concentrations of compounds (from 25 to 400 nM) were added to U2OS cells infected with wild-type HSV-1 strain F at a MOI of 1.” left out
# [2] = Cytotoxicity by MTT assay; type: cell-based, Human; conditions: human, U2OS cells (osteosarcoma cell line), read-out: CC50 (concentration able to kill 50% of the cells)
# Protocol: as §1, with “Increasing concentrations of compounds (from 25 to 400 nM) were added to U2OS cells infected with wild-type HSV-1 strain F at a MOI of 1.” left out
# HSV-1 = assay: Time of addition (TOA) assay in HSV-1-infected U2OS cells; type: cell-based; conditions: non-toxic concentration, added every 2 hours up to 10 h.p.i., supernatants at 30 h.p.i. titrated by PRA
# Protocol: To assess the main and temporally last viral step targeted by the most promising compound, GSA-0932, a time of addition (TOA) assay was performed (see, FIG. 2) (see, Artusi S., et al., Antiviral Res. 2015; 118:123-31; Callegaro S., et al., Sci. Rep. 2017; 7: 2341; Daelemans D., et al., Nat. Protoc. 2011; 6(6):925-33). This experiment permits determination of how long the addition of a compound can be postponed before it loses its antiviral activity. Since the HSV-1 replication cycle proceeds in a well-established chronological order, it is possible to investigate the last viral process targeted by a compound comparing its action to that of a reference drug in the time frame of replication events. The well characterized anti-HSV drug Acyclovir (ACV) was considered as reference (see, Artusi S., et al., Antiviral Res. 2015; 118:123-31; Callegaro S., et al., Sci. Rep. 2017; 7: 2341). HSV-1-infected U2OS cells were treated with a non-toxic concentration of GSA-0932 at different times post-infection (corresponding to different viral cycle steps): every 2 hours up to 10 h.p.i. Supernatants were collected at 30 h.p.i. and then titrated by PRA.
# [3] = test system: HSV-1 un3 G-quadruplex folding sequence; assay: Circular dichroism (CD) melting of G-quadruplex, un3; type: binding
# Protocol: (§2) Circular dichroism (CD) was conducted to evaluate the binding and stabilizing activity of GSA-0932 to HSV-1 G-quadruplex structures (G4s). Three sequences were considered: two sequences forming a four-stacked-G-quartet structure (un2 and gp054a) and one forming a three-G-quartet G4 (un3) (see, Artusi S., et al., Antiviral Res. 2015; 118:123-31). HSV-1 G4s were analyzed at a final concentration of 4 μM in the presence of the physiological K^+ concentration (100 mM) or in the presence of lower K^+ concentration (2.5 mM) in order to better appreciate the effect of the compound in the case of extremely stable G4 structures (e.g. un2 sequence). Oligonucleotides were also analyzed in the absence or presence of 4-folds excess of GSA-0932.
# [4] = test system: HSV-1 un2 G-quadruplex folding sequence; assay: Circular dichroism (CD) melting of G-quadruplex, un2; type: binding; conditions: un2 4 μM + 16 μM GSA-0932, K+ 2.5 mM
# Protocol: as §2
# [5] = test system: HSV-1 gp054a G-quadruplex folding sequence; assay: Circular dichroism (CD) melting of G-quadruplex, gp054a; type: binding; conditions: for Tm, first value: first of two printed Tm; for Tm, second value: second of two printed Tm
# Protocol: as §2
# [6] = test system: un2, un3 and gp054a G-quadruplex forming templates; assay: Taq polymerase stop assay, G-quadruplex templates; type: biochemical, HSV-1; conditions: 2-8 μM compound; un3 at 50 mM K+, un2 and gp054a at 0.5 mM K+
# Protocol: (§3) FIG. 3: Taq polymerase stop assay. A) Image of a typical Taq polymerase stop assay. The un2, un3, gp054a template were amplified by Taq polymerase in the absence (lanes 5-9-13) and in the presence of K^+, combined with increasing amounts (2-8 μM) of GSA-0932 (lanes 7-8, 11-12, 15-16) or same amount of DMSO as that in the ligand (lanes 6-10-14). Un3 was analyzed at 50 mM of K^+, while the other sequences were investigated at 0.5 mM of K^+. A template (non-G4 ctrl) unable to fold into G4 was also used as control (lanes 1-4). P stands for unreacted labeled primer, FL stands for full length product. G4-specific Taq polymerase stop sites are highlighted by vertical bars. Quantification of stop bands corresponding to G4 and of the full length amplification product (FL) is shown.
# To confirm the increased stability of the viral G-quadruplexes in the presence of GSA-0932, a Taq polymerase stop assay was next set up (FIG. 3). Extended un2, un3 and gp054a forming sequences were used, containing additional flanking bases at the 3′-end: a primer annealing sequence and a 5-T linker region to separate the annealing sequence from the first G of the G-tract.
# (§4) Un3 was analyzed at 50 mM of K^+, while the FIG. 3 other sequences were investigated at 0.5 mM of K^+ due to their higher stability.
# [7] = test system: control DNA template unable to fold into G-quadruplex; assay: Taq polymerase stop assay, non-G4 control template; type: biochemical; conditions: non-G4 ctrl template
# Protocol: as §3, §4
# [8] = test system: un3 G-quadruplex-folded oligonucleotide; assay: Competition ESI-MS binding, un3; parameters: species or system HSV-1; conditions: competing G4s un3/hTel, oligonucleotides 4 μM, DNA:compound 1:1.5, overnight 4° C.
# Protocol: (§5) Competition electrospray ionization mass spectrometry (ESI-MS) experiments were performed in order to check the binding selectivity of GSA-0932 toward different G-quadruplex forming sequences (see, Callegaro S., et al., Sci. Rep. 2017; 7: 2341; Yuan G., et al., Mass Spectrom. Rev. 2011, 30, 1121-114210.1002/mas.20315). The viral un3, un2 and gp054a G4s were analyzed against the selected competitor hTel, the G-quadruplex-forming sequence of the human telomeric repeat, the most abundant cellular G-quadruplex. The oligonucleotides were diluted to final concentration of 4 μM and incubated with the compound at ratio DNA:compound 1:1.5 overnight at 4° C. Samples were analyzed by a Xevo G2-XS QT of mass spectrometer (Waters, Manchester, UK). Binding affinities were calculated for each experiment using the peak intensity for each species measured by MassLynx V4.1.
# [9] = test system: un2 G-quadruplex-folded oligonucleotide; assay: Competition ESI-MS binding, un2; parameters: species or system HSV-1; conditions: competing G4s un2/hTel, oligonucleotides 4 μM, DNA:compound 1:1.5, overnight 4° C.
# Protocol: as §5
# [10] = test system: gp054a G-quadruplex-folded oligonucleotide; assay: Competition ESI-MS binding, gp054a; parameters: species or system HSV-1; conditions: competing G4s gp054a/hTel, oligonucleotides 4 μM, DNA:compound 1:1.5, overnight 4° C.
# Protocol: as §5
# [11] = test system: hTel, the G-quadruplex-forming sequence of the human telomeric repeat; assay: Competition ESI-MS binding, hTel; conditions: oligonucleotides 4 μM, DNA:compound 1:1.5, overnight 4° C.
# Protocol: as §5
# [12] = Human alphaherpesvirus 1, HSV-1 strain F
# [13] = un3 4 μM + 16 μM GSA-0932, K+ 2.5 mM
# [14] = un3 4 μM + 16 μM GSA-0932, K+ 100 mM
# [15] = gp054a 4 μM + 16 μM GSA-0932, K+ 2.5 mM
# [16] = gp054a 4 μM + 16 μM GSA-0932, K+ 100 mM
smiles,measurement,setting,value
"Cc1c2ccncc2c(C)c2c1[nH]c1ccc(OCCN(C)C)cc12 [GQC-05, reference compound]",IC50,wild-type HSV-1 strain F; HSV-1 strain F,311 nM
same,CC50,[1],1650 nM
c1ccc2c3c4c(nc2c1)c1ccccc1n4CCCN3CCCN1CCOCC1 [GSA-0825],"SI (selectivity index, ratio of CC50 to IC50)",wild-type HSV-1 strain F,91.64
same,IC50,wild-type HSV-1 strain F; [12],357 nM
same,CC50,[2],32.7 µM
CN1CCN(CCCN2CCCn3c4ccccc4c4nc5ccccc5c2c43)CC1 [GSA-0903],"SI (selectivity index, ratio of CC50 to IC50)",wild-type HSV-1 strain F,<31.15
same,IC50,wild-type HSV-1 strain F; [12],> 200 nM
same,CC50,[2],6.23 µM
Cl.c1ccc2c3c4c(nc2c1)c1ccccc1n4CCCN3CCCN1CCCCCC1 [GSA-0920],"SI (selectivity index, ratio of CC50 to IC50)",wild-type HSV-1 strain F,<9.05
same,IC50,wild-type HSV-1 strain F; [12],> 400 nM
same,CC50,[2],3.62 µM
OC1CCN(CCN2CCCn3c4ccccc4c4nc5ccccc5c2c43)CC1 [GSA-0932],"SI (selectivity index, ratio of CC50 to IC50)",wild-type HSV-1 strain F,112.9
same,IC50,wild-type HSV-1 strain F; [12],132 nM
same,CC50,[2],14.9 µM
same,time of addition up to which infection was kept controlled,HSV-1,up to 6 h.p.i.
same,Tm,[3]; [13],56.4 ± 1.2 °C
same,ΔTm,[3]; [13],18.8 ± 0.8 °C
same,Tm,[3]; [14],66.4 °C
same,ΔTm,[3]; [14],1.4 °C
same,Tm,[4],>90 °C
same,ΔTm,[4],>7.5 °C
same,ΔTm,[5]; [15],15.6 °C
same,"Tm, first value",[5]; [15],74.5 °C
same,"Tm, second value",[5]; [15],> 90 °C
same,"Tm, first value",[5]; [16],74.7 °C
same,"ΔTm, first value","[5]; gp054a 4 μM + 16 μM GSA-0932, K+ 100 mM, first of two printed ΔTm",17.4 °C
same,"Tm, second value",[5]; [16],> 90 °C
same,"ΔTm, second value","[5]; gp054a 4 μM + 16 μM GSA-0932, K+ 100 mM, second of two printed ΔTm",> 7.5 °C
same,intensity of the G4 stop bands,[6],increased in a concentration dependent manner
same,effect on control DNA template,[7],no effect
same,"Relative binding affinity, un3",[8],50.3 ± 1.2
same,"Relative binding affinity, un2",[9],38.9 ± 1.7
same,"Relative binding affinity, gp054a",[10],57.3 ± 0.4
same,"Relative binding affinity, Cell G4 (hTel)",[11]; competing G4s un2/hTel,11.1 ± 0.4
same,"Relative binding affinity, Cell G4 (hTel)",[11]; competing G4s un3/hTel,13.8 ± 0.2
c1ccc2c3c4c(nc2c1)c1ccccc1n4CCCN3CCCN1CCCCC1 [GSA-1202],"SI (selectivity index, ratio of CC50 to IC50)",wild-type HSV-1 strain F,21.31
same,IC50,wild-type HSV-1 strain F; [12],202 nM
same,CC50,[2],4.32 µM
CN(C)CCN1CCCn2c3ccccc3c3nc4ccccc4c1c32 [GSA-1502],"SI (selectivity index, ratio of CC50 to IC50)",wild-type HSV-1 strain F,68.70
same,IC50,wild-type HSV-1 strain F; [12],188 nM
same,CC50,[2],12.9 µM
CN(C)CCCN1CCCn2c3ccccc3c3nc4ccccc4c1c32 [GSA-1504],"SI (selectivity index, ratio of CC50 to IC50)",wild-type HSV-1 strain F,20.42
same,IC50,wild-type HSV-1 strain F; [12],225 nM
same,CC50,[2],4.6 µM
OC1CCC(CCN2CCCn3c4ccccc4c4nc5ccccc5c2c43)CC1 (centres unmarked) [GSA-1512],"SI (selectivity index, ratio of CC50 to IC50)",wild-type HSV-1 strain F,70.78
same,IC50,wild-type HSV-1 strain F; [12],256 nM
same,CC50,[2],18.1 µM
